Test results from patent US20220340665A1, “INHIBITOR AGAINST EXPRESSION OF IMMUNE CHECKPOINT MOLECULE” (RENASCIENCE INC., priority 2019, published 2022).
Entries after “also recorded” stand apart in the source; their conditions may differ.

Tests used:
[1] = test system: mouse colorectal cancer cell line (MC38); assay: PD-L1 expression level by flow cytometry in MC38 cells (Experimental Example 3); type: cell-based; details: inhibitor 50 μM with rPAI-1 40 nM, 2 days, listed as PAI-1 inhibitor
Experimental: (§1) Next, the PD-L1 expression level was determined by flow cytometry in the same manner as in Experimental Example 1.
(§2) Likewise, a mouse colorectal cancer cell line (MC38) and a mouse malignant melanoma cell line (B16F10) were also tested in the same manner, instead of the mouse leukemia cell line (32Dp210).

[2] = test system: mouse malignant melanoma cell line (B16F10); assay: PD-L1 expression level by flow cytometry in B16F10 cells (Experimental Example 3); type: cell-based; details: inhibitor 50 μM with rPAI-1 40 nM, 2 days, listed as PAI-1 inhibitor
Experimental: as §1, §2

[3] = test system: M2 macrophages (CD11b+CD206+); assay: PD-L1 expression in M2 macrophages of orally dosed mice (Experimental Example 7); type: in vivo, mice (C57BL6); details: peripheral blood; 10 mg/kg orally once daily, 7 days; vs vehicle
Experimental: Mice (C57BL6) were orally administered with the PAI-1 inhibitor once daily at 10 mg/kg for a total of 7 days. On the next day of the final administration, the peripheral blood or the spleen was collected from the mice. The spleen was mechanically dispersed through nylon mesh. The peripheral blood and spleen cells were independently hemolyzed with an ammonium chloride solution, and the PD-L1 expression level in M2 macrophages (CD11b^+CD206^+) was determined with a flow cytometer. As a comparative control experiment, the peripheral blood or the spleen was collected in the same manner from a mouse group to which only physiological saline (vehicle) was administered to determine the PD-L1 expression level in M2 macrophages (CD11b^+CD206^+).

[4] = test system: mouse leukemia cell line (32Dp210); assay: Size of subcutaneous 32Dp210 tumor mass in mice (Experimental Example 10); type: in vivo, mice (C3H/HEJ); details: 32Dp210 subcutaneous, 10 mg/kg orally once daily, 7 days, n=2, listed as PAI-1 inhibitor
Experimental: Specifically, 5×10^5 cells of a mouse leukemia cell line (32Dp210) were transplanted subcutaneously in mice (C3H/HEJ), and one week later, engraftment of more than 5 mm of a tumor mass in the major axis was confirmed. Subsequently, the PAI-1 inhibitor was orally administered once daily at 10 mg/kg for a total of 7 days. On the next day of the final administration, the size of the tumor mass ([…]) was measured. As a comparative control experiment, the size of the tumor mass was measured in the same manner in terms of a mouse group to which only physiological saline (vehicle) was orally administered instead of the PAI-1 inhibitor.

[5] = test system: mouse colorectal cancer cell line (MC38); assay: Size of subcutaneous MC38 tumor mass in mice (Experimental Example 11); type: in vivo, mice (C57BL6); details: PAI-1 inhibitor 10 mg/kg orally daily 14 days, anti-PD1 antibody 15 μg i.p. every 3 days, 3 times, 14 and 21 days
From the text: Mice (C57BL6) were divided into 1) an untreated group (vehicle) (n=15), 2) a single-administration group of anti-PD1 antibody (anti-PD-1 Ab), 3) a single-administration group of PAI-1 inhibitor (PAI-1 inhibitor), and 4) a combination group of anti-PD1 antibody and PAI-1 inhibitor (anti-PD-1 Ab+PAI-1 inhibitor) (n=18 for 2) to 4)). Then, 5×10^5 cells of the mouse colorectal cancer cell line (MC38) were transplanted subcutaneously into each mouse. One week after transplantation, engraftment of more than 5 mm of a tumor mass in the major axis was confirmed. Subsequently, the PAI-1 inhibitor (10 mg/kg) was orally administered once daily to groups 3) and 4) above for a total of 14 consecutive days. For groups 2) and 4), 15 μg of anti-PD1 antibody was intraperitoneally administered every 3 days (3 times in total) from the same day as the administration day of the PAI-1 inhibitor. For the untreated group, physiological saline was orally administered. The size of the tumor mass was measured 2 weeks (14 days) and 3 weeks (21 days) after the transplantation (0 days).

[6] = test system: mouse colorectal cancer cell line (MC38); assay: MC38 tumor mass in immunodeficient and wild-type mice (Experimental Example 12); type: in vivo; details: 10 mg/kg orally once daily, 14 days, listed as PAI-1 inhibitor
Experimental: To confirm this point, the following experiment was performed. Specifically, 5×10^5 cells of a mouse colorectal cancer cell line (MC38) were subcutaneously transplanted into immunodeficient mice (Rag2/IL-2R-KO) and wild-type mice (WT, for control). The immunodeficient mice lacked the RAG2 gene and the IL-2 receptor γ chain gene, and immune cells (T cells, B cells, NK cells) were not congenitally present in the body. One week later, engraftment of more than 5 mm of a tumor mass in the major axis was confirmed. Subsequently, the PAI-1 inhibitor (10 mg/kg) or physiological saline (vehicle) was orally administered to each mouse once daily for a total of 14 consecutive days.

[7] = test system: M2 macrophages; assay: Macrophages and M2 macrophages in MC38 tumor mass by flow cytometry (Experimental Example 13); type: in vivo, mice (C57BL6); details: oral administration for one week, vs vehicle
Experimental: (§3) 1) The untreated group and 3) the single-administration group of PAI-1 inhibitor (cancer-bearing mice) of Experimental Example 11, after tumor engraftment, were orally administered with physiological saline (vehicle) or the PAI-1 inhibitor for one week. Thereafter, the tumors were collected, and the M2 macrophages were stained with an anti-CD45 antibody, an anti-CD11b antibody, an anti-F4/80 antibody, and an anti-CD206 antibody, and the percentage of M2 macrophages in the tumor mass was analyzed with a flow cytometer.

[8] = test system: regulatory T cells (Treg); assay: Regulatory T cells in MC38 tumor mass by flow cytometry (Experimental Example 14); type: in vivo, mice (C57BL6); details: oral administration for one week, vs vehicle
Experimental: as §3, with “collected,” for “collected, and”, “the cells” for “the M2 macrophages”, “an anti-CD4” for “an anti-CD11b”, “an anti-CD25” for “an anti-F4/80”, “an anti-foxp3” for “an anti-CD206”, “of regulatory T cells (Treg)” for “of M2 macrophages”

[9] = test system: CD8+ T cells; assay: Cytotoxic T cells in MC38 tumor mass by flow cytometry (Experimental Example 16); type: in vivo, mice (C57BL6); details: oral administration for one week, vs vehicle
From the text: 1) The untreated group and 3) the single-administration group of PAI-1 inhibitor (cancer-bearing mice) of Experimental Example 11, after tumor engraftment, were orally administered with physiological saline (vehicle) or the PAI-1 inhibitor for one week. Thereafter, the tumor was collected, the T cells were stained with an anti-CD45 antibody, an anti-CD3 antibody, an anti-CD4 antibody, an anti-CD8 antibody, and an anti-perforin antibody, and the percentage of cytotoxic T cells in the tumor mass was determined with a flow cytometer.

[10] = non-clinical and clinical studies (JP2020-088416A); cited from earlier work

O=C(Nc1ccc(Cl)cc1C(=O)[O-])c1cccc(-c2cccc3cccnc23)c1.[Na+] [Example 68, 5-chloro-2-(((3-(quinolin-8-yl)phenyl)carbonyl)amino)sodium benzoate]
PD-L1 expression induction by rPAI-1 [1]: completely inhibited the induction; also recorded: the same results as those of the leukemia cells | PD-L1 expression induction by rPAI-1 [2]: completely inhibited the induction; also recorded: the same results as those of the leukemia cells | PD-L1 expression level in M2 macrophages [3]: reduction in the PD-L1 expression level | size of the tumor mass [4]: tumor mass disappearance; also recorded: loss of tumor mass | size of the tumor mass [5]: significantly regressed; also recorded: tumor regression | tumor regression effect ([6]; immunodeficient mice (Rag2/IL-2R-KO)): no such an effect was observed; also recorded: not observed | tumor regression effect ([6]; wild-type mice (WT), 10 mg/kg): achieved a tumor regression effect; also recorded: observed | number of macrophages in the tumor [7]: reduced | percentage of M2 macrophages among macrophages [7]: reduced | percentage of regulatory T cells in the tumor [8]: reduced | percentage of intratumoral infiltration of CD8+ T cells (effector T cells) [9]: increased | safety by oral administration [10]: no safety issues
